For eleven compounds, activity, EC200 and EC300 results are on record in US11981660B2, “Neurite outgrowth promoters and uses thereof” (UNIVERSITY OF MIAMI, priority 2018, dated 2024).

The test system of the assay is hippocampal neurons. The experiment in a line: Neurite outgrowth assay in cultured E18 rat hippocampal neurons (48 h, βIII-tubulin staining, Cellomics ArrayScan). The conditions noted are these: Hippocampal neuron; for activity at 0.015625 µg/mL: 15.625 ng/mL compound; for activity at 0.015625 µg/mL / activity at 0.03125 µg/mL / activity at 0.0625 µg/mL / activity at 0.125 µg/mL / activity at 0.25 µg/mL / activity at 0.5 µg/mL: 48 hours, read-out: neurite growth length (% NTL); for activity at 0.03125 µg/mL: 31.25 ng/mL compound; for activity at 0.0625 µg/mL: 62.5 ng/mL compound; for activity at 0.125 µg/mL: 125 ng/mL compound; for activity at 0.25 µg/mL: 250 ng/mL compound; for activity at 0.5 µg/mL: 500 ng/mL compound; for EC200 / EC300: 48 h, estimated using linear interpolation; for EC200: 200% effective dose, read-out: ED200%; for EC300: 300% effective dose, read-out: ED300%. The class given is cell-based. Here is the method:
Pre-coating culture plates: On the day before the experiment, 96-well plates were pre-coated by plating 50 μL of poly-D-lysine solution (PDL, 0.5 mg/mL) in each well. The next morning, the plates were washed four or five times with HBSS or PBS (150 μL/rinse), then left in buffer until cell plating
Preparing the cells: A timed pregnant rat carrying E18 embryos was euthanized using an IACUC approved method. In a laminar flow hood, the embryos were removed and placed in a petri dish containing Hank's Balanced Salt Solution (HBSS) with 20 mM HEPES, pH 7.3. Pup brains were dissected (see Meberg et al., Methods cell Biol 71:111-127 (2003)) and hippocampi were collected in 15 mL a conical tube containing Hibernate E with SM1 (2% v/v).
Dissociation media was prepared by combining 4.5 mL of Hibernate E (without SM1) with 0.5 mL of trypsin and 100 μl of DNAse solution. The medium over the hippocampi was carefully removed and replaced with dissociation solution, then incubated at 37° C. for 15-20 minutes, occasionally swirling the tube.
Using flame polished cotton plugged Pasteur pipettes, the dissociation media was removed, and then 5 mL of Hibernate E containing SM1 were added. The tube was swirled to thoroughly wash the tissue. The tissue was allowed to settle to the bottom of the tube, and the rinse solution was carefully removed. This step was repeated 5 times to dilute out trypsin and DNAse and remove any debris from lysed cells.
The final rinse media was removed from the tube and 1 pipette-full (1-2 mL) of Hibernate E with SM1 was added. Using the flame-polished Pasteur pipette (pre-wetted with rinse media), the tube was triturated until all cells had dissociated and no visible chunks of tissue remained. Fewer than ten triturations were typically performed. The volume was adjusted to 8-12 mL using Hibernate E containing SM1, the well was mixed and cell concentration was determined.
Plating: The cells were diluted in culture media (NbActiv4 Cell-culture media) to a final concentration of 10,000 cells/mL. The HBSS was aspirated from PDL coated plates, and 150 μL of cell solution was loaded in the middle 48 wells at 1500 cells per well. Water was loaded in the outer wells to decrease evaporation from edge wells. Cells were allowed to adhere for 2 hours in tissue culture incubator prior to treatment.
Treatment: Compounds were diluted to various concentrations to provide 6 dose response concentrations of 500 ng/mL, 250 ng/mL, 125 ng/mL, 62.5 ng/mL, 31.25 ng/mL, and 15.625 ng/mL. The plates were cultured for 48 hours, exposed to the compound at the various dose response concentrations.
Fixing the cultures: The culture medium was removed from the plates and immediately replaced with 100-200 μL of warm (37° C.) 4% paraformaldehyde (“PFA”) solution in phosphate-buffered saline (“PBS”). The cells were fixed for 15-20 minutes at room temperature, and then rinsed with PBS (200 μl/well×3).
Staining and imaging: The PBS was removed and replaced with 100 μL of blocking/permeabilization buffer (PBS, 0.2% fish gelatin, 0.03% Triton X-100, 0.02% NaN3), then incubated overnight at 4° C. To this was added 100 μL of primary antibody solution (mouse anti-Beta III tubulin in blocking buffer) and incubate overnight at 4° C. The wells were rinsed with PBS (200 μl×3), which was then removed and replaced with 100 μL of secondary antibody solution (Goat anti-mouse Alexa 488, 10 μg/ml Hoechst 33342, 0.2% fish gelatin, 0.02% azide, in PBS). The plate was shaken gently on a rotating shaker for 2 hours, then rinsed with PBS (200 μl×5).
The plate was imaged using a Cellomics ArrayScan VTI in 2 different channels for nuclear staining (Hoechst) and cell body/neurite staining (βIII-tubulin). Typically, nine fields per well were imaged with a 5× objective and automatically traced by the Neuronal Profiling Bioapplication. To get reproducible results, at least 200-300 valid neurons were measured per condition. […]

For `S=C1N(CCCC[C@H]2CNC(CCCc3ccccc3)=N2)C[C@@H](c2ccccc2)N1CCC1CCCCC1` [Compound A24, (R)-3-(2-cyclohexylethyl)-4-phenyl-1-(4-((S)-2-(3-phenylpropyl)-4,5-dihydro-1H-imidazol-4-yl)butyl)imidazolidine-2-thione], the activity at 0.015625 µg/mL worked out at 144%, the activity at 0.03125 µg/mL was 209%, the activity at 0.0625 µg/mL was 252% and the activity at 0.125 µg/mL is 254%. In addition, the activity at 0.25 µg/mL is 222% and the activity at 0.5 µg/mL was 184%.
For the compound `CCC(C)C1=N[C@@H](CCCCN2C[C@@H](CC(C)C)N(CCC3CCCCC3)C2=S)CN1` (stereo partly drawn) [Compound A13, (4R)-1-(4-((4S)-2-(sec-butyl)-4,5-dihydro-1H-imidazol-4-yl)butyl)-3-(2-cyclohexylethyl)-4-isobutylimidazolidine-2-thione], the activity at 0.015625 µg/mL was 159%, the activity at 0.03125 µg/mL came to 179%, the activity at 0.0625 µg/mL came out at 262% and the activity at 0.125 µg/mL came out at 253%. The activity at 0.25 µg/mL was 253% and the activity at 0.5 µg/mL turned out to be 264%.
In the case of `CCC(C)C1=N[C@@H](CCCCN2C[C@@H](c3ccccc3)N(CC3CCC(C)CC3)C2=S)CN1` (stereo partly drawn) [Compound A25, (4R)-1-(4-((4S)-2-(sec-butyl)-4,5-dihydro-1H-imidazol-4-yl)butyl)-3-((4-methylcyclohexyl)methyl)-4-phenylimidazolidine-2-thione], the activity at 0.015625 µg/mL turned out to be 190%, the activity at 0.03125 µg/mL is 256%, the activity at 0.0625 µg/mL was 297% and the activity at 0.125 µg/mL is 302%. For the same compound, the activity at 0.25 µg/mL was determined as 256%, the activity at 0.5 µg/mL was found to be 280%, the EC200 is 0.005 µM and the EC300 is 0.054 µM.
`CCC(C)C1=N[C@@H](CCCCN2C[C@@H](CC(C)C)N(CCCC(C)C)C2=S)CN1` (mixture of isomers) [Compound A10, (4R)-1-(4-((4S)-2-(sec-butyl)-4,5-dihydro-1H-imidazol-4-yl)butyl)-4-isobutyl-3-(4-methylpentyl)imidazolidine-2-thione]: the activity at 0.015625 µg/mL was determined as 123%, the activity at 0.03125 µg/mL amounted to 180%, the activity at 0.0625 µg/mL came to 223% and the activity at 0.125 µg/mL came out at 254%. The activity at 0.25 µg/mL was 259% and the activity at 0.5 µg/mL turned out to be 240%.
On to `CC1CCC(CN2C(=S)N(CCCC[C@H]3CNC(CCCc4ccccc4)=N3)C[C@H]2c2ccccc2)CC1` (stereo partly drawn) [Compound A27, (R)-3-((4-methylcyclohexyl)methyl)-4-phenyl-1-(4-((S)-2-(3-phenylpropyl)-4,5-dihydro-1H-imidazol-4-yl)butyl)imidazolidine-2-thione], for which the activity at 0.015625 µg/mL was 185%, the activity at 0.03125 µg/mL stood at 174%, the activity at 0.0625 µg/mL came to 238% and the activity at 0.125 µg/mL turned out to be 269%. In addition, the activity at 0.25 µg/mL amounted to 245%, the activity at 0.5 µg/mL is 221%, the EC200 was 0.017 µM and the EC300 is above 0.471 µM.
On to `C[C@@H]1CN(CCCC[C@H]2CNC(CCCc3ccccc3)=N2)C(=S)N1CCC1CCCCC1` [Compound A6, (R)-3-(2-cyclohexylethyl)-4-methyl-1-(4-((S)-2-(3-phenylpropyl)-4,5-dihydro-1H-imidazol-4-yl)butyl)imidazolidine-2-thione], for which the activity at 0.015625 µg/mL came out at 101%, the activity at 0.03125 µg/mL amounted to 122%, the activity at 0.0625 µg/mL was found to be 122% and the activity at 0.125 µg/mL was 210%. For the same compound, the activity at 0.25 µg/mL was determined as 247% and the activity at 0.5 µg/mL was 243%.
Consider `CCC(C)C1=N[C@@H](CCCCN2C[C@@H](C)N(CCCC(C)C)C2=S)CN1` (mixture of isomers) [Compound A1, (4R)-1-(4-((4S)-2-(sec-butyl)-4,5-dihydro-1H-imidazol-4-yl)butyl)-4-methyl-3-(4-methylpentyl)imidazolidine-2-thione], for which the activity at 0.015625 µg/mL is 92%, the activity at 0.03125 µg/mL came to 116%, the activity at 0.0625 µg/mL was determined as 155% and the activity at 0.125 µg/mL is 169%. Moreover, the activity at 0.25 µg/mL was found to be 209% and the activity at 0.5 µg/mL stood at 323%.
Take `CC1CCC(CN2C(=S)N(CCCC[C@H]3CNC(C4CCCC4)=N3)C[C@H]2c2ccccc2)CC1` (stereo partly drawn) [Compound A26, (R)-1-(4-((S)-2-cyclopentyl-4,5-dihydro-1H-imidazol-4-yl)butyl)-3-((4-methylcyclohexyl)methyl)-4-phenylimidazolidine-2-thione]: the activity at 0.015625 µg/mL came out at 251%, the activity at 0.03125 µg/mL stood at 272%, the activity at 0.0625 µg/mL came out at 306% and the activity at 0.125 µg/mL amounted to 286%. Moreover, the activity at 0.25 µg/mL was 271%, the activity at 0.5 µg/mL was determined as 230%, the EC200 is 0.002 µM and the EC300 is above 0.52 µM.
`CCC(C)C1=N[C@@H](CCCCN2C[C@@H](C)N(CCC3CCCCC3)C2=S)CN1` (stereo partly drawn) [Compound A4, (4R)-1-(4-((4S)-2-(sec-butyl)-4,5-dihydro-1H-imidazol-4-yl)butyl)-3-(2-cyclohexylethyl)-4-methylimidazolidine-2-thione]: the activity at 0.015625 µg/mL is 102%, the activity at 0.03125 µg/mL stood at 121%, the activity at 0.0625 µg/mL stood at 143% and the activity at 0.125 µg/mL was 196%. The activity at 0.25 µg/mL was 246% and the activity at 0.5 µg/mL came out at 358%.
Take `CC(C)C[C@@H]1CN(CCCC[C@H]2CNC(C3CCCC3)=N2)C(=S)N1CC1CCC(C)CC1` (stereo partly drawn) [Compound A17, (R)-1-(4-((S)-2-cyclopentyl-4,5-dihydro-1H-imidazol-4-yl)butyl)-4-isobutyl-3-((4-methylcyclohexyl)methyl)imidazolidine-2-thione]: the activity at 0.015625 µg/mL came to 170%, the activity at 0.03125 µg/mL was found to be 255%, the activity at 0.0625 µg/mL amounted to 254% and the activity at 0.125 µg/mL was 312%. Further, the activity at 0.25 µg/mL came to 238%, the activity at 0.5 µg/mL was determined as 263%, the EC200 was 0.004 µM and the EC300 is 0.025 µM.
With `CC1CCC(CN2C(=S)N(CCCC[C@H]3CNC(CCCc4ccccc4)=N3)C[C@H]2C)CC1` (stereo partly drawn) [Compound A9, (R)-4-methyl-3-((4-methylcyclohexyl)methyl)-1-(4-((S)-2-(3-phenylpropyl)-4,5-dihydro-1H-imidazol-4-yl)butyl)imidazolidine-2-thione], the activity at 0.015625 µg/mL came to 88%, the activity at 0.03125 µg/mL amounted to 102%, the activity at 0.0625 µg/mL was 118% and the activity at 0.125 µg/mL amounted to 70%. In addition, the activity at 0.25 µg/mL is 238% and the activity at 0.5 µg/mL was 297%.
